From patent US9637488B2, “Heterocyclic compounds as inhibitors of class I PI3KS” (priority 2015, dated 2017)

Experiments:
Type in all cases: biochemical
[1] = target: PI3Kδ (p110δ/p85α) (Homo sapiens (Human), UniProt O00329); experiment: cell-free PI3K HTRF assay, PI3Kδ; conditions: 10-dose IC50 mode, 3-fold serial dilution starting at 1 μM; ATP 10 μM; read-out: IC50 value for the inhibition of PI3Kδ
[2] = target: PI3Kα (p110α/p85α) (Homo sapiens (Human), UniProt P42336); experiment: cell-free PI3K HTRF assay, PI3Kα; conditions: ratio of IC50 against PI3Kα related to PI3Kδ; 10-dose, 3-fold serial dilution starting at 10 μM
Protocol: (§1) Exemplary compounds of the invention were tested for inhibitory activity and potency against class I PI3Ks (p110α/p85α, p110β/p85α, p110δ/p85α and p110γ) using a cell-free based PI3K HTRF assay. This assay was used to detect the formation of the product 3,4,5-inositol triphosphate molecule (PIP3) by displacement of biotin-PIP3 from an energy transfer complex consisting of Europium labeled anti-GST monoclonal antibody, a GST-tagged pleckstrin homology (PH) domain, biotinylated PIP3 and Streptavidin-Allophycocyanin (APC). Excitation of Europium in the complex results in an energy transfer to the APC and a fluorescent emission at 665 nm. The PIP3 product formed by human PI 3-Kinase activity displaces biotin-PIP3 from the complex resulting in a loss of energy transfer and thus a decrease in signal.
(§2) Human class I PI3K isoforms were co-expressed in a Baculovirus infected cell expression system. The PI3K isoforms were assayed in the presence of HEPES (50 mM, pH 7.0), NaN3 (0.02%), BSA (0.01%), orthovanadate (0.1 mM), and DMSO (1%). The exemplary compounds dissolved in DMSO were delivered into the kinase reaction mixture by Acoustic technology (Echo550; nanolitter range), and were pre-incubated for 10 min at room temperature before adding ATP (10 μM) to initiate the reaction. After 30 min at 30° C., the reactions were quenched with a stop solution, incubated overnight with a detection mixture before measuring HTRF (Ex: 320 nm; Em: 615/665 nm). The emission ratio is converted into μM PIP3 production based on PIP3 standard curves, and the nonlinear regression to obtain the standard curve and IC50 values are performed using Graphpad Prism software.
(§3) The assays were performed at Reaction Biology Corporation, One Great Valley Parkway, Suite 2, Malvern, Pa. 19355, USA.
(§4) Exemplary compounds of the invention selected were further tested their inhibitory activity or potency against PI3Kα, PI3Kβ, and PI3Kγ in 10-dose IC50 mode with 3-fold serial dilution starting at 10 μM. […] Table 5 below illustrates the selectivity of the exemplary compounds using the ratios of the IC50 values of the compounds against PI3Kα, PI3Kβ, and PI3Kγ related to PI3Kδ. […] Such unexpected selectivity against PI3Kδ and/or PI3Kγ is attributed to the unusual overall shape of the molecules of formula (I) and (II), and the optimal selection of R1, R2, R3, R4, X, and Y defined in formula (I) and (II) in order to bind favorably in the ATP-binding pocket of PI3Kδ and/or PI3Kγ versus other class I isozymes.

[3] = target: PI3Kβ (p110β/p85α) (Homo sapiens (Human), UniProt P42338); experiment: cell-free PI3K HTRF assay, PI3Kβ; conditions: ratio of IC50 against PI3Kβ related to PI3Kδ; 10-dose, 3-fold serial dilution starting at 10 μM
Protocol: as §1, §2, §3, §4

[4] = target: PI3Kγ (p110γ) (Homo sapiens (Human), UniProt P48736); experiment: cell-free PI3K HTRF assay, PI3Kγ; conditions: ratio of IC50 against PI3Kγ related to PI3Kδ; 10-dose, 3-fold serial dilution starting at 10 μM
Protocol: as §1, §2, §3, §4

PI3Kβ (p110β/p85α), sequence (P42338 whole entry): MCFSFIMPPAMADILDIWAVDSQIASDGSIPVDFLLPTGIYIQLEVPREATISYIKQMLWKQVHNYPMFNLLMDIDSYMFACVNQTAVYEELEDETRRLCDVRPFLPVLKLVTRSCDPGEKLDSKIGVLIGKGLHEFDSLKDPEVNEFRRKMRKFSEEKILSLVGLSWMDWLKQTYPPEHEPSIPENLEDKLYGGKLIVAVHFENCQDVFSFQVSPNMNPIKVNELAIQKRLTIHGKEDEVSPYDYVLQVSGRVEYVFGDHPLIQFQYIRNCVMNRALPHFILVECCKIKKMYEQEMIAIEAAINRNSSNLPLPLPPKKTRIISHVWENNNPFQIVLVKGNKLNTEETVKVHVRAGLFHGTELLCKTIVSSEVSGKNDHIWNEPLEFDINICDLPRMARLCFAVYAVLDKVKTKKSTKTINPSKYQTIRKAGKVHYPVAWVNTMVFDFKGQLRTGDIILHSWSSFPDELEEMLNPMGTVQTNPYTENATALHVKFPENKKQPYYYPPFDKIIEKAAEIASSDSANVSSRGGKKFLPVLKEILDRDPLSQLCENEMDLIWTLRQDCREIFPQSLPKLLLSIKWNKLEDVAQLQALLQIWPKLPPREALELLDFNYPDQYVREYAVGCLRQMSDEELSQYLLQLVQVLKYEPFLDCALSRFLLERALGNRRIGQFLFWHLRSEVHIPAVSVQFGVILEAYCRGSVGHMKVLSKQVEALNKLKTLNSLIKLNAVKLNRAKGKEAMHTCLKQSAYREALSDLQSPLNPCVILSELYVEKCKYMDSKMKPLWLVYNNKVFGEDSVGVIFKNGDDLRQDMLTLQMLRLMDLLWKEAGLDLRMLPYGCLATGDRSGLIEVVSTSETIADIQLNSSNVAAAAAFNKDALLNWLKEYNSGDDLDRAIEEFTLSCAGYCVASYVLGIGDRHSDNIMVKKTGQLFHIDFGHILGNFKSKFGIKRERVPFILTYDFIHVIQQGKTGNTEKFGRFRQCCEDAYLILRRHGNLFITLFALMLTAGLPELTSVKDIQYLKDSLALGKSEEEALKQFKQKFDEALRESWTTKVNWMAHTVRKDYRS
PI3Kβ (p110β/p85α), sequence (P27986 whole entry partner): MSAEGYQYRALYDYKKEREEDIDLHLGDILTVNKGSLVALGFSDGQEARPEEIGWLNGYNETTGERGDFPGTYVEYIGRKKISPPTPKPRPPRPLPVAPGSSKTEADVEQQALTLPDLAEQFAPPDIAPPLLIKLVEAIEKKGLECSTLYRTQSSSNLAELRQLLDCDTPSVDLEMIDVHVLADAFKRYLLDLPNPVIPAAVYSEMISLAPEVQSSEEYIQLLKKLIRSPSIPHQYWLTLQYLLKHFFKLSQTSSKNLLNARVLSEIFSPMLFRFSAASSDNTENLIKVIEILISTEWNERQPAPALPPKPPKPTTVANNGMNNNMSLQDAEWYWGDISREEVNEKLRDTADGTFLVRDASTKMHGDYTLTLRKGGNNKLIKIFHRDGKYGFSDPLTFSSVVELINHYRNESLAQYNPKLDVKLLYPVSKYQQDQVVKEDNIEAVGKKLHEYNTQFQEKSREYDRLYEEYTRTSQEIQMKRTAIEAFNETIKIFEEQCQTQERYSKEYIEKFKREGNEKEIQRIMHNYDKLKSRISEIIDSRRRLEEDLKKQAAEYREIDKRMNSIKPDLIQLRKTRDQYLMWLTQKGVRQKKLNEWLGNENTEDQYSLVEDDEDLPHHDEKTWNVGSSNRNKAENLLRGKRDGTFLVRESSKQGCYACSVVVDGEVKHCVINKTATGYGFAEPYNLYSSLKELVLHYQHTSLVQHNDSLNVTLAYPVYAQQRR
PI3Kγ (p110γ), sequence (P48736 whole entry): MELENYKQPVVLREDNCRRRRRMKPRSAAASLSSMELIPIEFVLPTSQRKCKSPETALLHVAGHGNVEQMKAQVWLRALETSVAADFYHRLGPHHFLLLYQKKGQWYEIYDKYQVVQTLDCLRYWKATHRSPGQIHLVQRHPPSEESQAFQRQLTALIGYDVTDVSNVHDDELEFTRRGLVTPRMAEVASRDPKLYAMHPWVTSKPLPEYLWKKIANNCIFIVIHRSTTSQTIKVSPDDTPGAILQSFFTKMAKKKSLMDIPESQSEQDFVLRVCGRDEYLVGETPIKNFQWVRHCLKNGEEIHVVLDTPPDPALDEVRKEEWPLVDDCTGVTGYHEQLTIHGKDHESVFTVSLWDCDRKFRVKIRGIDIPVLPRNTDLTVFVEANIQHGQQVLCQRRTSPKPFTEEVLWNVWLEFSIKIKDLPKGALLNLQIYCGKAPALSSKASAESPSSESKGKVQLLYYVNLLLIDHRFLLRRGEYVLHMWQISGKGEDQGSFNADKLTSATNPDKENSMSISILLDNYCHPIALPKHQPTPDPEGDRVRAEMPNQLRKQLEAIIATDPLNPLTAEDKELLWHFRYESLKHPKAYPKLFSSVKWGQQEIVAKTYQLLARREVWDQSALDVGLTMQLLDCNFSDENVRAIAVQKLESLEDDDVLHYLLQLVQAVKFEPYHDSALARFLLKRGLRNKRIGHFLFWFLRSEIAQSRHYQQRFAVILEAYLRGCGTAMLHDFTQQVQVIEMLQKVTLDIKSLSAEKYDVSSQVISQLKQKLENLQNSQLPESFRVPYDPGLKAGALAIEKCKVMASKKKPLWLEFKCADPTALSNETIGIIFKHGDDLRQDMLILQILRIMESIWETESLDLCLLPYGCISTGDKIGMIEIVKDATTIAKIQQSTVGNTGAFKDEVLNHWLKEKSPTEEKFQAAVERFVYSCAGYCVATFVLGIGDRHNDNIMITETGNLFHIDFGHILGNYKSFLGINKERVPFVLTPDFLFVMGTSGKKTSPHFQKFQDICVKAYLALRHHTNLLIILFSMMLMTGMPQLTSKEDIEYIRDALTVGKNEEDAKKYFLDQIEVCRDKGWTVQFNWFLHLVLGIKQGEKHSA
PI3Kα (p110α/p85α), sequence (P42336 whole entry): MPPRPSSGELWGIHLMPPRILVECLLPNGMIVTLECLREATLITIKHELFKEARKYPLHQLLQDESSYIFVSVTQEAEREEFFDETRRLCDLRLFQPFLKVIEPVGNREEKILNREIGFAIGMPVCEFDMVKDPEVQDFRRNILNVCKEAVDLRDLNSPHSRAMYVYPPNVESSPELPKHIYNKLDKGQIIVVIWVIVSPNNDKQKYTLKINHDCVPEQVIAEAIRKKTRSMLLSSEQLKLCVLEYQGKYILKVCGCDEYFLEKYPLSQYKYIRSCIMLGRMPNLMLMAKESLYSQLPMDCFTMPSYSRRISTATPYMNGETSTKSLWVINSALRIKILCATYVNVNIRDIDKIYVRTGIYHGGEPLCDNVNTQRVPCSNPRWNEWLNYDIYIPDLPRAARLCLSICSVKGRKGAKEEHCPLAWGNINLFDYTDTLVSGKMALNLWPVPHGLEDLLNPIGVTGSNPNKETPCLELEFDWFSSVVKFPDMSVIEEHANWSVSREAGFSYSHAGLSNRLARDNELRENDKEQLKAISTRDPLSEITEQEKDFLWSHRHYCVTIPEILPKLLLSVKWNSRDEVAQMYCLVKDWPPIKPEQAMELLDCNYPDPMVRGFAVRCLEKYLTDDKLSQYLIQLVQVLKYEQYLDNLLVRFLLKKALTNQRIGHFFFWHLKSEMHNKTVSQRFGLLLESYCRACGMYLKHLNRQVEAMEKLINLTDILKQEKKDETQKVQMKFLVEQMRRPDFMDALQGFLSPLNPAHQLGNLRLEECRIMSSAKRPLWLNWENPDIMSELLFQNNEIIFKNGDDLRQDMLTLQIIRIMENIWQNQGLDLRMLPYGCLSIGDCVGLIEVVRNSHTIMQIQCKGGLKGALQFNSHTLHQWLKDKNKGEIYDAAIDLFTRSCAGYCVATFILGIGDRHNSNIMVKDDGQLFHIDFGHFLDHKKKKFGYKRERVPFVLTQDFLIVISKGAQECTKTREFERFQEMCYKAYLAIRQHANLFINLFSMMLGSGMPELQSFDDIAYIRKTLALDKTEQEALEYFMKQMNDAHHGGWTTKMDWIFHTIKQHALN
PI3Kα (p110α/p85α), sequence (P27986 whole entry partner): as the sequence (P27986 whole entry partner) above
PI3Kδ (p110δ/p85α), sequence (O00329 whole entry): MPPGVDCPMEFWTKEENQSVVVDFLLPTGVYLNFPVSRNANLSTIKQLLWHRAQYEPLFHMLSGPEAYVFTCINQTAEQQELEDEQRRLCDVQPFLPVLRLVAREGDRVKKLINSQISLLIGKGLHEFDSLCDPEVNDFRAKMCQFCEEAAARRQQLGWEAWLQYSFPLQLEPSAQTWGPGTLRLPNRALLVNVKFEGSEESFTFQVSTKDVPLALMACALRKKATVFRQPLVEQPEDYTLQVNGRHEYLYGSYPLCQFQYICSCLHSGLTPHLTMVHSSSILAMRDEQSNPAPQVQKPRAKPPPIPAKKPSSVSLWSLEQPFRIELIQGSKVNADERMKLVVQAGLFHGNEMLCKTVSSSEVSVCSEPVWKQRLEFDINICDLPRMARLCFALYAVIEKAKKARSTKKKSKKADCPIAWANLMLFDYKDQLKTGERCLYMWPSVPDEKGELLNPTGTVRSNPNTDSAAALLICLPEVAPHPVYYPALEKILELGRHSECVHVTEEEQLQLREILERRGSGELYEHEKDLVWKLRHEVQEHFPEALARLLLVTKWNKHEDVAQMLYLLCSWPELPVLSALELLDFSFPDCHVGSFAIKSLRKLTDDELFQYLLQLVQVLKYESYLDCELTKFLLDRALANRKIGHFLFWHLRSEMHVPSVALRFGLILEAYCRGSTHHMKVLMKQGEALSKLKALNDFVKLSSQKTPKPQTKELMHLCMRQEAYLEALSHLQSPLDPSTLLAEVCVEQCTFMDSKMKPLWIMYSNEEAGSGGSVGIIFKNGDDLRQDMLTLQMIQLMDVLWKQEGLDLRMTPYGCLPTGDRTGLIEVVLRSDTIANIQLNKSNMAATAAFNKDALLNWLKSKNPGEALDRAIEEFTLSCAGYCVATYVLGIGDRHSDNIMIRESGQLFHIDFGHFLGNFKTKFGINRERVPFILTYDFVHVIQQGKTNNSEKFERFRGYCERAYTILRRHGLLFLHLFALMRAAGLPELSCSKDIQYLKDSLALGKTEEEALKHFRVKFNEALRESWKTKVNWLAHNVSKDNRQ
PI3Kδ (p110δ/p85α), sequence (P27986 whole entry partner): as the sequence (P27986 whole entry partner) above

IC50 [1] [pM] | Ratio (α/δ) [2] | Ratio (β/δ) [3] | Ratio (γ/δ) [4] | SMILES
700 | 12818 | 3550 | 67.5 | Fc1ccc2cc(C3CCCN3c3ncnc4[nH]cnc34)c(-c3ccccc3)nc2c1 (centres unmarked) [Compound 21]
< 50 | >8583 | 1368 | >5.6 | N#Cc1c(N)ncnc1N1CCC[C@H]1c1cc2cccc(Cl)c2nc1-c1ccccc1 [Compound 67]
